Values quoted from earlier work in US20100331966A1, “BIOCORRODIBLE IMPLANT HAVING AN ACTIVE COATING” (priority 2009, published 2010).

System: hyperlipidemic rabbits
[1] = hyperlipidemic rabbits, repeated administration

| Substance | plaque-loosening effect (rabbit, in vivo) | atheromatous vascular plaque [1] | blood cholesterol [1] | fibrin content [1] | heparin content in the plasma [1] | vascular permeability in the tissue [1] |
| --- | --- | --- | --- | --- | --- | --- |
| hyaluronate lyase [bacteria hyaluronate lyase] | confirmed |  |  |  |  |  |
| hyaluronidase |  | significant decrease | lowering | lowering | increase | increased |
